Laboratory results taken from PMC11714165, “Bone‐Targeted Fluoropeptide Nanoparticle Inhibits NF‐κB Signaling to Treat Osteosarcoma and Tumor‐Induced Bone Destruction” (Advanced Science, 2024).
Residues, ends and D or L forms follow the SMILES beside them. *: point of attachment. X1 = O=C(OCCC(F)(F)C(F)(F)C(F)(F)C(F)(F)C(F)(F)C(F)(F)F)c1ccc(C=NN*)cc1; FITC = O=C1OC2(c3ccc(O)cc3Oc3cc(O)ccc32)c2ccc(NC(=S)*)cc21; NHNH2 = NN*

How the values were obtained:
mouse red blood cell = assay: Hemolysis of red blood cell suspension; format: cell-based; details: 2% mouse red blood cell suspension, different concentrations, 37 °C, 2 h, 1% Triton X‐100 positive control, n = 3
Protocol: Figure 3 Bioactivity of fluorous NBD nanoparticles. A) Schematic illustration of the NBD peptide inhibiting the NF‐κB pathway. B) WB analysis of p65, IκB, and phosphorylated p65 and IκB, respectively in BMM cells treated with RANKL for 2 h and then further incubated with different peptides (25 µM) for 24 h. C) Representative images of TRAP staining in BMM cells treated with PBS, NBD, NBD‐T, and NBD‐F respectively for osteoclast differentiation. The concentration of peptides was 25 µM. D) Quantification of the number of TRAP‐positive multinucleated osteoclasts (≥ 3 nuclei) based on the images in C). n = 5. Cell viability E) and LDH release F) of 143B cells exposed for 24 h to varying doses of NBD, NBD‐T, and NBD‐F, respectively. n = 3. G) Apoptosis analysis of 143B cells stained with FITC‐annexin V and propidium iodide (PI) for 24 h following treatment with NBD, NBD‐T, and NBD‐F, respectively. H) Images of 2% mouse red blood cell suspension incubated with different concentrations of NBD‐F or NBD‐T at 37 °C for 2 h. Triton X‐100 at 1% (Tx‐100) was used as a positive control. PBS was used as a negative control. […] Relative hemolysis was tested as [(As‐An)/(Ap‐An)] × 100%, where As, Ap, and An are the UV absorbances of the sample, positive control, and negative control, respectively (n = 3). *p < 0.05, **p < 0.01, ***p < 0.001, and ****p < 0.0001. […]

143B cells [1] = assay: LDH release assay; format: cell-based, human; details: varying doses, 24 h, n = 3
Protocol: For the LDH assay, different concentrations of peptides were added to 143B cells as described above. The LDH released from the cells was measured by the manufacturer's protocol (Beyotime) after 24 h of incubation. Briefly, a new plate was used to transfer the solution of each well and treat it with lysis buffer at 37 °C for another 1 h. Each well was then incubated with the LDH working solution for 30 min. LDH activity was measured at 490 nm. Negative control cells were non‐treated, while positive control cells were treated with lysis buffer for 1 h directly. All samples were tested in triplicate.

143B cells [2] = assay: Intracellular peptide delivery, confocal microscopy and flow cytometry; format: cell-based, human
Protocol: 10 µM of ^FINBD, ^FINBD‐F, or ^FINBD‐T was added to confocal dishes (diameter: 35 mm) when the 143B cells reached 90% confluence. After a 6 h incubation, the cells were rinsed with trypan blue and PBS, followed by imaging using a LSCM.
For flow cytometry analysis, the peptide ^FINBD, ^FINBD‐F, or ^FINBD‐T was added to 143B cells, following the aforementioned protocols. Subsequently, cells were digested using 0.25% trypsin, resuspended in PBS, and subjected to quantitative analysis of delivery efficiency using flow cytometry (CytoFLEX, BECKMAN, USA).
A control group consisted of ^FINBD‐F treated 143B cells in the absence of inhibitors (37 °C). Finally, LSCM was employed to observe internalized ^FINBD‐F in the treated cells.

Cellular uptake and endosomal escape (143B cells [2]; confocal, fluorescence dispersed throughout the cells after an hour of incubation) | Compound | Relative hemolysis (mouse red blood cell) | LDH release (143B cells [1]) | Efficiency of intracellular delivery (fluorescence intensity) (143B cells [2]; 10 µM NBD, 6 h, confocal microscopy and flow cytometry, n = 3, compared with ^FINBD and ^FINBD‐T) | Internalization mechanism (143B cells [2]; 1 h pretreatment with EIPA 100 µM, MβCD 10 mM, GEN 700 µM, CPZ 20 µM or 4 °C, then 6 h peptide)
– | CC(C)C[C@H](NC(=O)[C@H](C)NC(=O)[C@@H](N)[C@@H](C)O)C(=O)N[C@@H](CC(=O)O)C(=O)N[C@@H](Cc1c[nH]c2ccccc12)C(=O)N[C@@H](CO)C(=O)N[C@@H](Cc1c[nH]c2ccccc12)C(=O)N[C@@H](CC(C)C)C(=O)N[C@@H](CCC(N)=O)C(=O)N[C@H](C(=O)N[C@@H](CCC(=O)O)C(=O)NN=Cc1ccc(C(=O)OCCC(F)(F)C(F)(F)C(F)(F)C(F)(F)C(F)(F)C(F)(F)F)cc1)[C@@H](C)O [NBD-F] (H-TALDWSWLQTE-X1) | relatively low hemolytic rate | concentration‐dependent | – | –
rapid and efficient | {FITC}-TALDWSWLQTE-NHNH2 [^FINBD-F, FITC‐labeled NBD peptide after fluorous tag modification] | – | – | noticeably improved the efficiency of intracellular delivery | mediated through multiple endocytosis pathways
